Source: the supplement of paper PMC6045584
± gives the standard deviation of the averaged measurements.

Assays:
BEZ-235 = compound: Cn1c(=O)n(-c2ccc(C(C)(C)C#N)cc2)c2c3cc(-c4cnc5ccccc5c4)ccc3ncc21 [BEZ-235]; experiment: surviving fraction relative to DMSO-only wells; higher = less growth inhibition; details: exposure time: 5 days
Summary of the method: (§1)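 Inhibitors at 0.5, 1, 5, 10, 50, 100, 500 and 1000 nM were applied continuously for five days to tumour cell lines seeded in log phase at 250–500 cells per well in 384-well plates 24 hours earlier. Viability was measured by CellTiter-Glo luminescence and expressed as surviving fraction relative to the median of DMSO-only wells. Luminescence was taken after 10 minutes at room temperature.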

NILOTINIB = compound: Cc1cn(-c2cc(NC(=O)c3ccc(C)c(Nc4nccc(-c5cccnc5)n4)c3)cc(C(F)(F)F)c2)cn1 [NILOTINIB]; experiment: as above; details: exposure time: 5 days
Summary of the method: as §1

| Test System | surviving fraction (BEZ-235; 0.5 nM) | surviving fraction (BEZ-235; 1 nM) | surviving fraction (BEZ-235; 5 nM) | surviving fraction (BEZ-235; 10 nM) | surviving fraction (BEZ-235; 50 nM) | surviving fraction (BEZ-235; 100 nM) | surviving fraction (BEZ-235; 500 nM) | surviving fraction (BEZ-235; 1000 nM) | surviving fraction (NILOTINIB; 0.5 nM) | surviving fraction (NILOTINIB; 1 nM) | surviving fraction (NILOTINIB; 5 nM) | surviving fraction (NILOTINIB; 10 nM) | surviving fraction (NILOTINIB; 50 nM) | surviving fraction (NILOTINIB; 100 nM) | surviving fraction (NILOTINIB; 500 nM) | surviving fraction (NILOTINIB; 1000 nM) |
| --- | --- | --- | --- | --- | --- | --- | --- | --- | --- | --- | --- | --- | --- | --- | --- | --- |
| SG43 HEADNECK | 0.984 ± 0.18 | 1.23 ± 0.35 | 0.946 ± 0.1 | 0.956 ± 0.048 | 0.763 ± 0.12 | 0.77 ± 0.11 | 0.555 ± 0.037 | 0.36 ± 0.036 | 1.19 ± 0.17 | 1.12 ± 0.25 | 1.05 ± 0.13 | 1.05 ± 0.055 | 1.66 ± 0.17 | 1.76 ± 0.32 | 1.93 ± 0.23 | 1.98 ± 0.2 |
| CHLA90 AUTONOMIC GANGLIA | 0.983 ± 0.078 | 1 ± 0.033 | 0.979 ± 0.057 | 0.947 ± 0.05 | 0.644 ± 0.046 | 0.428 ± 0.024 | 0.175 ± 0.0087 | 0.106 ± 0.0023 | 0.993 ± 0.057 | 1.01 ± 0.082 | 0.957 ± 0.036 | 1.09 ± 0.076 | 1.1 ± 0.055 | 1.14 ± 0.12 | 1.11 ± 0.016 | 1.09 ± 0.077 |
| NY BONE | 0.996 ± 0.023 | 0.987 ± 0.018 | 1.02 ± 0.048 | 1.01 ± 0.044 | 0.825 ± 0.04 | 0.769 ± 0.003 | 0.486 ± 0.022 | 0.464 ± 0.036 | 1.03 ± 0.038 | 1.04 ± 0.018 | 1.08 ± 0.025 | 1.1 ± 0.049 | 1.12 ± 0.043 | 1.12 ± 0.03 | 1.01 ± 0.06 | 1.01 ± 0.045 |
| SCC36 HEADNECK | 1 ± 0.15 | 1.05 ± 0.043 | 1.12 ± 0.048 | 1.16 ± 0.074 | 1.11 ± 0.08 | 0.966 ± 0.08 | 0.497 ± 0.022 | 0.352 ± 0.015 | 1.04 ± 0.035 | 1.02 ± 0.043 | 1.06 ± 0.15 | 1.09 ± 0.046 | 0.839 ± 0.048 | 0.849 ± 0.04 | 0.74 ± 0.052 | 0.79 ± 0.038 |
| SUM159 BREAST | 1.11 ± 0.11 | 1.11 ± 0.099 | 1.1 ± 0.065 | 1.09 ± 0.069 | 0.922 ± 0.062 | 0.635 ± 0.065 | 0.228 ± 0.014 | 0.168 ± 0.015 | 1.1 ± 0.039 | 1.1 ± 0.021 | 1.11 ± 0.021 | 1.09 ± 0.032 | 1.06 ± 0.023 | 1.077 ± 0.0068 | 1.055 ± 0.0095 | 1.06 ± 0.016 |
| HCC1954 BREAST | 1.02 ± 0.06 | 0.947 ± 0.1 | 1.05 ± 0.064 | 0.875 ± 0.11 | 0.492 ± 0.02 | 0.363 ± 0.02 | 0.172 ± 0.011 | 0.127 ± 0.0092 | 0.917 ± 0.15 | 0.891 ± 0.032 | 0.936 ± 0.059 | 0.969 ± 0.019 | 0.589 ± 0.0085 | 0.677 ± 0.12 | 0.8063 ± 0.0032 | 0.739 ± 0.077 |
| OS25HAL BONE | 0.995 ± 0.017 | 1.01 ± 0.035 | 0.974 ± 0.031 | 0.965 ± 0.025 | 0.94 ± 0.045 | 0.788 ± 0.04 | 0.25 ± 0.0061 | 0.196 ± 0.018 | 1.02 ± 0.034 | 0.973 ± 0.028 | 1.01 ± 0.037 | 0.997 ± 0.061 | 1.03 ± 0.019 | 0.944 ± 0.055 | 0.85 ± 0.05 | 0.795 ± 0.055 |
| HCT15 LARGE INTESTINE | 1.04 ± 0.026 | 1.03 ± 0.057 | 1.11 ± 0.041 | 1.1 ± 0.033 | 0.655 ± 0.035 | 0.525 ± 0.0089 | 0.249 ± 0.027 | 0.209 ± 0.0044 | 1.05 ± 0.082 | 1.01 ± 0.071 | 1.07 ± 0.12 | 1.09 ± 0.12 | 1.09 ± 0.1 | 1.12 ± 0.037 | 1.05 ± 0.11 | 1.06 ± 0.091 |
| SCC47 HEADNECK | 1.07 ± 0.091 | 1.07 ± 0.019 | 1.12 ± 0.019 | 1.11 ± 0.016 | 1.01 ± 0.092 | 0.996 ± 0.085 | 0.326 ± 0.023 | 0.33 ± 0.0059 | 1.07 ± 0.05 | 1.06 ± 0.045 | 1.15 ± 0.064 | 1.08 ± 0.025 | 1.041 ± 0.0046 | 1.04 ± 0.074 | 0.95 ± 0.037 | 0.932 ± 0.019 |
| U2OS BONE | 1.03 ± 0.049 | 1.058 ± 0.0092 | 1.06 ± 0.011 | 1.06 ± 0.013 | 0.9133 ± 0.0045 | 0.78 ± 0.038 | 0.293 ± 0.006 | 0.256 ± 0.013 | 1.03 ± 0.032 | 1.02 ± 0.037 | 1.11 ± 0.032 | 1.11 ± 0.06 | 1.07 ± 0.059 | 1.13 ± 0.088 | 1.11 ± 0.095 | 1.09 ± 0.095 |
| SKBR3 BREAST | 1.07 ± 0.18 | 0.925 ± 0.035 | 0.88 ± 0.046 | 1.07 ± 0.018 | 0.786 ± 0.097 | 0.564 ± 0.039 | 0.141 ± 0.014 | 0.116 ± 0.0092 | 1.01 ± 0.13 | 1.02 ± 0.074 | 1 ± 0.037 | 0.994 ± 0.13 | 0.731 ± 0.097 | 0.826 ± 0.18 | 0.744 ± 0.061 | 0.775 ± 0.076 |
| SAOS2 BONE | 1.18 ± 0.055 | 1.12 ± 0.043 | 1.171 ± 0.01 | 1.23 ± 0.1 | 1.08 ± 0.045 | 0.874 ± 0.0098 | 0.433 ± 0.039 | 0.36 ± 0.014 | 1.13 ± 0.064 | 1.09 ± 0.038 | 1.19 ± 0.035 | 1.21 ± 0.062 | 0.963 ± 0.072 | 0.912 ± 0.091 | 0.91 ± 0.016 | 0.905 ± 0.06 |
| 22RV1 PROSTATE | 1.04 ± 0.047 | 1.02 ± 0.085 | 0.992 ± 0.097 | 0.949 ± 0.096 | 0.448 ± 0.025 | 0.339 ± 0.065 | 0.126 ± 0.017 | 0.119 ± 0.018 | 1.04 ± 0.05 | 1.07 ± 0.026 | 1.13 ± 0.079 | 1 ± 0.022 | 1.18 ± 0.13 | 1.09 ± 0.1 | 1.09 ± 0.043 | 1.09 ± 0.038 |
| CAL51 BREAST | 0.92 ± 0.025 | 0.958 ± 0.035 | 0.902 ± 0.086 | 0.894 ± 0.056 | 0.453 ± 0.032 | 0.279 ± 0.018 | 0.097 ± 0.005 | 0.0853 ± 0.0042 | 0.977 ± 0.039 | 0.897 ± 0.066 | 1.01 ± 0.038 | 0.947 ± 0.073 | 1.03 ± 0.068 | 1.01 ± 0.06 | 0.952 ± 0.059 | 0.971 ± 0.032 |
| OSHN BONE | 1.07 ± 0.033 | 1.09 ± 0.044 | 1.06 ± 0.029 | 1.08 ± 0.03 | 1.12 ± 0.013 | 1.12 ± 0.026 | 0.828 ± 0.02 | 0.623 ± 0.0072 | 1.02 ± 0.017 | 1.01 ± 0.023 | 1.06 ± 0.025 | 1.01 ± 0.029 | 0.996 ± 0.034 | 1 ± 0.033 | 0.967 ± 0.02 | 0.96 ± 0.026 |
| A549 LUNG | 0.997 ± 0.054 | 1.01 ± 0.052 | 1.01 ± 0.074 | 1.01 ± 0.083 | 1.03 ± 0.033 | 0.66 ± 0.022 | 0.26 ± 0.022 | 0.221 ± 0.0093 | 1.06 ± 0.018 | 1.042 ± 0.01 | 1.11 ± 0.024 | 1.08 ± 0.037 | 1.1 ± 0.03 | 1.13 ± 0.045 | 1.08 ± 0.028 | 1.11 ± 0.043 |
| SUM149 BREAST | 1.11 ± 0.11 | 1.15 ± 0.044 | 1.04 ± 0.018 | 1 ± 0.059 | 0.715 ± 0.04 | 0.587 ± 0.024 | 0.153 ± 0.0052 | 0.108 ± 0.011 | 0.884 ± 0.092 | 0.895 ± 0.024 | 0.971 ± 0.057 | 0.833 ± 0.072 | 0.898 ± 0.053 | 0.786 ± 0.061 | 0.872 ± 0.071 | 0.833 ± 0.053 |
